Earlier results as cited in patent EP4470382A1, “PLANT EXTRACT AND METHODS COMPRISING THEREOF” (FUNDACION UNIVERSITARIA SAN ANTONIO (UCAM), priority 2023, dated 2024).

Details: activity registered in BIOPEP for the sequence

| Substance | Activity |
| --- | --- |
| VYQHQKAMKPWIQPKTKVIPYVRYL [(fr. 183-207) of bovine alpha s2-casein, identified in bovine casein hydrolysate, BIOPEP ID 5469] | antibacterial |
| LLYQEPVLGPVRGPFPIIV [peptide derived from bovine b-casein (1-28), identified in bovine casein hydrolysate, BIOPEP ID 8174] | immunomodulat ing |
| YQKFPQY | ACE inhibitor |
| SQSKVLPVPQKAVPYPQ [Antioxidative peptide identified in bovine casein hydrolysate, BIOPEP ID 9907] | antioxidative |
| RPKHPIKHQGLPQEVLNENLLRF [Isracidin - antiviral, identified in bovine casein hydrolysate, BIOPEP ID 9530] | antiviral |
